Assay results reported in paper PMC6269737, “Effect of Honokiol on Cytochrome P450 and UDP-Glucuronosyltransferase Enzyme Activities in Human Liver Microsomes” (Molecules, 2013).

What was measured:
CYP3A4 = CYP3A4 (Homo sapiens, UniProt P08684); assay: biochemical; conditions: IC50 (μM) of honokiol, Midazolam 1'-hydroxylation
Protocol: The inhibitory potential (IC50 values) of honokiol on CYP activities was evaluated in pooled human liver microsomes using liquid chromatography-tandem mass spectrometry (LC-MS/MS). […] Honokiol was dissolved in acetonitrile. […] […] The reaction was then stopped by placement of the tubes on ice and adding 100 μL of ice-cold methanol containing internal standards (^13C2, ^15N-acetaminophen for acetaminophen and N-deethylamodiaquine, and d9-1-hydroxybufuralol for 4-hydroxydiclofenac, 4-hydroxybupropion, 7-hydroxycoumarin, 4-hydroxymephenytoin, 1'-hydroxybufuralol, and 1'-hydroxymidazolam). The incubation mixtures were then centrifuged at 13,000 × g for 4 min. All incubations were performed in triplicate, and average values were used.
The reaction was initiated by the addition of the cocktail containing seven CYP probe substrates and bupropion.
The metabolites formed from the seven CYP cocktail substrates were simultaneously determined according to our previously described LC-MS/MS method with minor modification; the concentration of 4-hydroxybupropion for CYP2B6 activity was quantified separately by LC-MS/MS. A tandem mass spectrometer (TSQ Quantum Access, Thermo Scientific, San Jose, CA, USA) coupled with a Nanospace SI-2 LC system (Tokyo, Japan) was used. […] Quantification was performed by selected reaction monitoring (SRM) of [M+H]^+ ions and the related product ions for each metabolite. […]

UGT1A4 = biological target: T1, UGT1A4 (Homo sapiens, UniProt P22310); assay: UGT1A4-catalyzed trifluoperazine N-glucuronidation inhibition in pooled human liver microsomes; format: in vitro ADME; conditions: 5 μM trifluoperazine, pooled HLM (H161)
T1 sequence (P22310 29-534): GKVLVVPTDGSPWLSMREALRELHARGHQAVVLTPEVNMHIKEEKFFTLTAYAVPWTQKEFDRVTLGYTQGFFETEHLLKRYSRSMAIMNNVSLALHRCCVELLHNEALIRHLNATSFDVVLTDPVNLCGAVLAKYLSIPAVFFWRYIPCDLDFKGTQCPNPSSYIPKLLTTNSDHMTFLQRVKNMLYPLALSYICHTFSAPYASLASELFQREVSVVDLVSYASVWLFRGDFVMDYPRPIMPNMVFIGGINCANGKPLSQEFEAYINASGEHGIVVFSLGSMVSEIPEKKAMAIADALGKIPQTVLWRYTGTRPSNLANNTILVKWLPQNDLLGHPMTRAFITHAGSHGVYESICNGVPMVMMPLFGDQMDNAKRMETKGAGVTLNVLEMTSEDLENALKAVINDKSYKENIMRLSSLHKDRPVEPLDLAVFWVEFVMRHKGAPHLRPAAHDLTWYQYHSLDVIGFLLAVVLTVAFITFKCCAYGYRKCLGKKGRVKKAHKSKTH
Protocol: (§1) The inhibitory potency (IC50 value) of honokiol on UGT1A1-catalyzed 17β-estradiol 3-glucuronidation, UGT1A4-catalyzed trifluoperazine glucuronidation, UGT1A9-catalyzed propofol glucuronidation, and UGT2B7-catalyzed azidothymidine glucuronidation activities was determined in pooled human liver microsomes by LC-MS/MS [48]. […] Reactions were initiated by the addition of UDPGA (final concentration, 5 mM), and incubations were carried out at 37 °C in a shaking water bath for 30 min. Reactions were terminated by adding 100 μL of ice-cold methanol containing an internal standard (500 ng/mL ezetimibe for 17β-estradiol 3-glucuronide and propofol glucuronide; 30 ng/mL meloxicam for trifluoperazine glucuronide and azidothymidine glucuronide). The incubation mixtures were then centrifuged at 13,000 × g for 4 min, followed by dilution of 30 μL of the supernatant with 70 μL of water. An aliquot (5 μL) was injected onto the LC-MS/MS. All incubations were performed in triplicate and the mean values were used. Glucuronides produced from UGT isoform-specific substrates were determined by LC-MS/MS [49].
(§2) The apparent kinetic parameters for inhibitory potential (Ki values) were estimated from the fitted curves using Enzyme Kinetics Ver. 1.1 software (Systat Software Inc.).

UGT1A9 = biological target: T2, UGT1A9 (Homo sapiens, UniProt O60656); assay: UGT1A9-catalyzed propofol glucuronidation inhibition in pooled human liver microsomes; format: in vitro ADME; conditions: pooled HLM (H161)
T2 sequence (O60656 26-530): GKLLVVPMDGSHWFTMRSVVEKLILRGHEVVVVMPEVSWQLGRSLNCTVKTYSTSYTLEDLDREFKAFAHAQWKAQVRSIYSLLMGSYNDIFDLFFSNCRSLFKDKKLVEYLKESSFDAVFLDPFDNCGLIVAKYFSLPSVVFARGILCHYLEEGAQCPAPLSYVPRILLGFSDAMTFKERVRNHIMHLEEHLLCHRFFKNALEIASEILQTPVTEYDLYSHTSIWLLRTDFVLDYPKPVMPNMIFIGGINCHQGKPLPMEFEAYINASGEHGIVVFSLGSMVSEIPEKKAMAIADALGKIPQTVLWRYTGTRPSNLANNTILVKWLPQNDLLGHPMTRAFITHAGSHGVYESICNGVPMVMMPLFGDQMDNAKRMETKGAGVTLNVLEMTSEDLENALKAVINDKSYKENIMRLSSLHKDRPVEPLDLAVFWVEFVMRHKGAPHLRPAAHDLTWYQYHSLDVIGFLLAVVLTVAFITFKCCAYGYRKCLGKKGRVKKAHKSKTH
Protocol: as §1
The incubation mixtures were then centrifuged at 13,000 × g for 4 min, after which 30 μL of the supernatant was diluted with 70 μL of water. Aliquots (5 μL) were then analyzed by LC-MS/MS.
as §2

Sequence of CYP3A4 (P08684 2-503): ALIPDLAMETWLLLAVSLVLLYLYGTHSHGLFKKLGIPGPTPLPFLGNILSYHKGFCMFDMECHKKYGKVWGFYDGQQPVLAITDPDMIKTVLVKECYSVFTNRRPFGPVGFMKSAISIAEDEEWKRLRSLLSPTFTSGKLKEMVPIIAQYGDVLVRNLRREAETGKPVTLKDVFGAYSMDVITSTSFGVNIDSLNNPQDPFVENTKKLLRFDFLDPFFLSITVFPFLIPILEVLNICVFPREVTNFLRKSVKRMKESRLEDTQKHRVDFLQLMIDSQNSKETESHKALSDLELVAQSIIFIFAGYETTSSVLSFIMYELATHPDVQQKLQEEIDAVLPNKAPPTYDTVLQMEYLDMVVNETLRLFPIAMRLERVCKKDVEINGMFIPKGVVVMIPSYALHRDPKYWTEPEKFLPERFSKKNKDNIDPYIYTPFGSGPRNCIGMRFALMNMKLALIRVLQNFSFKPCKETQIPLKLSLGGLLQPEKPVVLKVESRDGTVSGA

IC50 (CYP3A4; no preincubation, 2.5 μM midazolam, pooled HLM (H161)): 97.3 µM
IC50 (CYP3A4; with preincubation, 30 min preincubation with NADPH): 45.8 µM
IC50 (UGT1A4): 158 µM
Ki (UGT1A9; Propofol glucuronidation, 5–40 μM propofol): 0.3 µM
Inhibition mode (UGT1A9; Propofol glucuronidation): competitive
IC50 at 30 min (UGT1A9; human, pooled human liver microsomes, pH 7.4, probe propofol (10 μM), propofol glucuronidation, 10 μM propofol): 0.96 µM
IC50 (UGT1A9; propofol glucuronidation, 10 μM propofol): 0.98 µM
SMILES: C=CCc1ccc(O)c(-c2ccc(O)c(CC=C)c2)c1 [honokiol, 2-(4-hydroxy-3-prop-2-enyl-phenyl)-4-prop-2-enyl-phenol]
